# From US6492174B1, “Methods of initiating embryogenic cultures in plants” (Institute of Paper Science & Technology, priority 2000, dated 2002)
# Tested on: Loblolly pine megagametophytes
# Test: Vacuum infiltration of abscisic acid solutions (liquid media #1036) before culture on solid media #1042, eight weeks
# Assay type: cell-based
# From the text: In this experiment the effects of megagametophyte pre-treatment by vacuum infiltration with abscisic acid solutions of varying concentration was investigated. The explants were megagametophytes from summer cones of four open pollinated individual trees, representing multiplicity of genotypes. The seeds contained Stage 2-4 zygotic embryos. Megagametophytes were excised from sterilized seeds, as described in Example 4.
# Prior to culturing, the megagametophytes were vacuum infiltrated with liquid growth media #1036 (see Table 47) containing 0, 1, 5, or 25 ppm abscisic acid (See Table 19 for treatment media compositions). After vacuum infiltration, each megagametophyte was placed on 2 ml solid culture media #1042 (see Table 47 for composition) in a single well on a culture well plate.
# One possible explanation for the results is that vacuum treatment may damage the megagametophytes.
# [1] = genotype 5-1207, treatment 2, 1 ppm abscisic acid
# [2] = genotype 5-1207, treatment 3, 5 ppm abscisic acid
# [3] = genotype 5-1207, treatment 4, 25 ppm abscisic acid
# [4] = genotype 7-1051, treatment 2, 1 ppm abscisic acid
# [5] = genotype 7-1051, treatment 3, 5 ppm abscisic acid
# [6] = genotype 7-1051, treatment 4, 25 ppm abscisic acid
# [7] = genotype 11-1055, treatment 2, 1 ppm abscisic acid
# [8] = genotype 11-1055, treatment 3, 5 ppm abscisic acid
# [9] = genotype 11-1055, treatment 4, 25 ppm abscisic acid
# [10] = genotype 11-1507, treatment 2, 1 ppm abscisic acid
# [11] = genotype 11-1507, treatment 3, 5 ppm abscisic acid
# [12] = genotype 11-1507, treatment 4, 25 ppm abscisic acid
# [13] = total, treatment 2, 1 ppm abscisic acid
# [14] = total, treatment 3, 5 ppm abscisic acid
# [15] = total, treatment 4, 25 ppm abscisic acid
smiles,measurement,setting,value
"CC1=CC(=O)CC(C)(C)C1(O)/C=C/C(C)=C\C(=O)O (stereo not shown) [ABA, 5-(1-hydroxy-2,6,6,-trimethyl-4-oxo-2-cyclohexen-1-yl)-3-methyl-2,4-penta dienoic acid]",% of Megagametophytes Extruding,[1],23.3 (14.5) %
same,% of Megagametophytes Initiating,[1],20 (11.5) %
same,% of Megagametophytes Extruding,[2],10.0 (5.8) %
same,% of Megagametophytes Initiating,[2],10 (5.8) %
same,% of Megagametophytes Extruding,[3],13.3 (13.3) %
same,% of Megagametophytes Initiating,[3],10 (10.0) %
same,% of Megagametophytes Extruding,[4],33.3 (8.8) %
same,% of Megagametophytes Initiating,[4],6.7 (3.3) %
same,% of Megagametophytes Extruding,[5],30.0 (11.5) %
same,% of Megagametophytes Initiating,[5],10 (5.8) %
same,% of Megagametophytes Extruding,[6],56.7 (12.0) %
same,% of Megagametophytes Initiating,[6],13.3 (8.8) %
same,% of Megagametophytes Extruding,[7],53.3 (3.3) %
same,% of Megagametophytes Initiating,[7],16.7 (3.3) %
same,% of Megagametophytes Extruding,[8],66.7 (12.0) %
same,% of Megagametophytes Initiating,[8],30 (11.5) %
same,% of Megagametophytes Extruding,[9],36.7 (3.3) %
same,% of Megagametophytes Initiating,[9],13.3 (3.3) %
same,% of Megagametophytes Extruding,[10],16.7 (6.7) %
same,% of Megagametophytes Initiating,[10],6.7 (6.7) %
same,% of Megagametophytes Extruding,[11],6.7 (3.3) %
same,% of Megagametophytes Initiating,[11],6.7 (3.3) %
same,% of Megagametophytes Extruding,[12],6.7 (3.3) %
same,% of Megagametophytes Initiating,[12],0 (0.0) %
same,% of Megagametophytes Extruding,[13],31.7%
same,% of Megagametophytes Initiating,[13],12.5%
same,% of Megagametophytes Extruding,[14],28.4%
same,% of Megagametophytes Initiating,[14],14.2%
same,% of Megagametophytes Extruding,[15],28.4%
same,% of Megagametophytes Initiating,[15],9.2%
same,promotion of extrusion or initiation,"vacuum infiltration, 1, 5 or 25 ppm",did not promote extrusion or initiation
